Test results from ChEMBL document CHEMBL4715829, “Heterodimeric Rifampicin-Tobramycin conjugates break intrinsic resistance of Pseudomonas aeruginosa to doxycycline and chloramphenicol in vitro and in a Galleria mellonella in vivo model” (Eur J Med Chem, 2019).
Converted amounts (≈) assume the structure as drawn.

Tests used:
Pseudomonas aeruginosa [1] = assay: Antibacterial activity against gentamicin-resistant Pseudomonas aeruginosa CAN-ICU 62308 assessed as reduction in bacterial growth incubated for 18 hrs by broth microdilution assay; assay type: functional
Pseudomonas aeruginosa [2] = assay: Antibacterial activity against Pseudomonas aeruginosa 100036 assessed as fractional inhibitory concentration index in presence of chloramphenicol incubated for 18 hrs by broth microdilution assay; assay type: functional
Pseudomonas aeruginosa [3] = assay: Antibacterial activity against Pseudomonas aeruginosa 100036 assessed as reduction in bacterial growth incubated for 18 hrs by broth microdilution assay; assay type: functional
Pseudomonas aeruginosa [4] = assay: Antibacterial activity against gentamicin, tobramycin-resistant Pseudomonas aeruginosa CANWARD 96846 assessed as reduction in bacterial growth incubated for 18 hrs by broth microdilution assay; assay type: functional
Acinetobacter baumannii = assay: Antibacterial activity against Acinetobacter baumannii CAN-ICU 63169 assessed as reduction in bacterial growth incubated for 18 hrs by broth microdilution assay; assay type: functional
Escherichia coli [5] = assay: Antibacterial activity against gentamicin-resistant Escherichia coli CAN-ICU 61714 assessed as reduction in bacterial growth incubated for 18 hrs by broth microdilution assay; assay type: functional
Pseudomonas aeruginosa [6] = assay: Antibacterial activity against Pseudomonas aeruginosa 264-101354 assessed as fractional inhibitory concentration index in presence of chloramphenicol incubated for 18 hrs by broth microdilution assay; assay type: functional
Escherichia coli [7] = assay: Antibacterial activity against gentamicin, tobramycin, ciprofloxacin-resistant Escherichia coli ATCC 97615 harboring aac(3')IIa gene assessed as reduction in bacterial growth incubated for 18 hrs by broth microdilution assay; assay type: functional
Pseudomonas aeruginosa [8] = assay: Antibacterial activity against Pseudomonas aeruginosa 91433 assessed as reduction in bacterial growth incubated for 18 hrs by broth microdilution assay; assay type: functional
Pseudomonas aeruginosa [9] = assay: Antibacterial activity against Pseudomonas aeruginosa 262-101856 assessed as fractional inhibitory concentration index in presence of doxycycline incubated for 18 hrs by broth microdilution assay; assay type: functional
Enterococcus faecalis = assay: Antibacterial activity against Enterococcus faecalis ATCC 29212 assessed as reduction in bacterial growth incubated for 18 hrs by broth microdilution assay; assay type: functional
[10] = tested on: Staphylococcus epidermidis; assay: Antibacterial activity against methicillin-susceptible Staphylococcus epidermidis CANWARD 81388 assessed as reduction in bacterial growth incubated for 18 hrs by broth microdilution assay; assay type: functional
Pseudomonas aeruginosa [11] = assay: Antibacterial activity against Pseudomonas aeruginosa 101885 assessed as reduction in bacterial growth incubated for 18 hrs by broth microdilution assay; assay type: functional
Staphylococcus aureus = assay: Antibacterial activity against Staphylococcus aureus ATCC 29213 assessed as reduction in bacterial growth incubated for 18 hrs by broth microdilution assay; assay type: functional
Pseudomonas aeruginosa [12] = assay: Antibacterial activity against Pseudomonas aeruginosa PAO1 assessed as fractional inhibitory concentration index in presence of Rifampicin incubated for 18 hrs by broth microdilution assay based checkerboard assay; assay type: functional
Pseudomonas aeruginosa [13] = assay: Antibacterial activity against Pseudomonas aeruginosa PAO1 assessed as fractional inhibitory concentration index in presence of Moxifloxacin incubated for 18 hrs by broth microdilution assay based checkerboard assay; assay type: functional
Pseudomonas aeruginosa [14] = assay: Antibacterial activity against Pseudomonas aeruginosa 91433 assessed as fractional inhibitory concentration index in presence of doxycycline incubated for 18 hrs by broth microdilution assay; assay type: functional
Pseudomonas aeruginosa [15] = assay: Antibacterial activity against Pseudomonas aeruginosa PAO1 assessed as fractional inhibitory concentration index in presence of Doxycycline incubated for 18 hrs by broth microdilution assay based checkerboard assay; assay type: functional
Pseudomonas aeruginosa [16] = assay: Antibacterial activity against Pseudomonas aeruginosa PAO1 assessed as reduction in bacterial growth by measuring linezolid MIC at <=10 uM in presence of linezolid incubated for 18 hrs by broth microdilution assay based checkerboard assay (reference value: 1024 microg/ml); assay type: functional; conditions: dose microM <=10
[17] = Cytotoxicity against human HEK293 cells assessed as cell viability at 50 uM incubated for 48 hrs by prestoblue assay; assay type: cell-based; conditions: read-out: Activity
Pseudomonas aeruginosa [18] = assay: Antibacterial activity against Pseudomonas aeruginosa PAO1 assessed as reduction in bacterial growth by measuring doxycycline MIC at <=[…] uM in presence of doxycycline incubated for 18 hrs by broth microdilution assay based checkerboard assay (reference value: […] microg/ml); assay type: functional; conditions: dose microM <=10
Pseudomonas aeruginosa [19] = assay: Antibacterial activity against Pseudomonas aeruginosa PAO1 assessed as fractional inhibitory concentration index in presence of Ceftazidime incubated for 18 hrs by broth microdilution assay based checkerboard assay; assay type: functional
Pseudomonas aeruginosa [20] = assay: Antibacterial activity against Pseudomonas aeruginosa PAO1 assessed as reduction in bacterial growth by measuring meropenem MIC at <=10 uM in presence of meropenem incubated for 18 hrs by broth microdilution assay based checkerboard assay (reference value: 1 microg/ml); assay type: functional; conditions: dose microM <=10
Pseudomonas aeruginosa [21] = assay: Antibacterial activity against Pseudomonas aeruginosa PAO1 assessed as reduction in bacterial growth by measuring tigecycline MIC at <=10 uM in presence of tigecycline incubated for 18 hrs by broth microdilution assay based checkerboard assay (reference value: 4 microg/ml); assay type: functional; conditions: dose microM <=10
Pseudomonas aeruginosa [22] = assay: Antibacterial activity against Pseudomonas aeruginosa 260-97103 assessed as fractional inhibitory concentration index in presence of chloramphenicol incubated for 18 hrs by broth microdilution assay; assay type: functional
Pseudomonas aeruginosa [23] = assay: Antibacterial activity against Pseudomonas aeruginosa PAO1 assessed as fractional inhibitory concentration index in presence of Trimethoprim incubated for 18 hrs by broth microdilution assay based checkerboard assay; assay type: functional
Pseudomonas aeruginosa [24] = assay: Antibacterial activity against Pseudomonas aeruginosa PAO1 assessed as fractional inhibitory concentration index in presence of Minocycline incubated for 18 hrs by broth microdilution assay based checkerboard assay; assay type: functional
[25] = Cytotoxicity against human HepG2 cells assessed as cell viability at <10 uM incubated for 48 hrs prestoblue assay; assay type: cell-based; conditions: read-out: Activity
Pseudomonas aeruginosa [26] = assay: Antibacterial activity against Pseudomonas aeruginosa PAO1 assessed as fractional inhibitory concentration index in presence of Nitrofurantoin incubated for 18 hrs by broth microdilution assay based checkerboard assay; assay type: functional
Pseudomonas aeruginosa [27] = assay: Antibacterial activity against Pseudomonas aeruginosa PAO1 assessed as reduction in bacterial growth by measuring vancomycin MIC at <=10 uM in presence of vancomycin incubated for 18 hrs by broth microdilution assay based checkerboard assay (reference value: 256 microg/ml); assay type: functional; conditions: dose microM <=10
Pseudomonas aeruginosa [28] = assay: Antibacterial activity against Pseudomonas aeruginosa PAO1 assessed as reduction in bacterial growth by measuring aztreonam MIC at <=10 uM in presence of aztreonam incubated for 18 hrs by broth microdilution assay based checkerboard assay (reference value: 4 microg/ml); assay type: functional; conditions: dose microM <=10
Pseudomonas aeruginosa [29] = assay: Antibacterial activity against Pseudomonas aeruginosa PAO1 assessed as fractional inhibitory concentration index in presence of Cefotaxime incubated for 18 hrs by broth microdilution assay based checkerboard assay; assay type: functional
Pseudomonas aeruginosa [30] = assay: Antibacterial activity against Pseudomonas aeruginosa PAO1 assessed as reduction in bacterial growth by measuring rifampicin MIC at <=[…] uM in presence of rifampicin incubated for 18 hrs by broth microdilution assay based checkerboard assay (reference value: […] microg/ml); assay type: functional; conditions: dose microM <=10
Pseudomonas aeruginosa [31] = assay: Antibacterial activity against Pseudomonas aeruginosa PAO1 assessed as fractional inhibitory concentration index in presence of Aztreonam incubated for 18 hrs by broth microdilution assay based checkerboard assay; assay type: functional
Pseudomonas aeruginosa [32] = assay: Antibacterial activity against Pseudomonas aeruginosa PAO1 assessed as fractional inhibitory concentration index in presence of Novobiocin incubated for 18 hrs by broth microdilution assay based checkerboard assay; assay type: functional
Pseudomonas aeruginosa [33] = assay: Antibacterial activity against Pseudomonas aeruginosa PAO1 assessed as reduction in bacterial growth by measuring novobiocin MIC at <=10 uM in presence of novobiocin incubated for 18 hrs by broth microdilution assay based checkerboard assay (reference value: 512 microg/ml); assay type: functional; conditions: dose microM <=10

Compound | MIC (Pseudomonas aeruginosa [1]) [µg/mL] | fractional inhibitory concentration index (FICI) (Pseudomonas aeruginosa [2]) | MIC (Pseudomonas aeruginosa [3]) [µg/mL] | MIC (Pseudomonas aeruginosa [4]) [µg/mL] | MIC (Acinetobacter baumannii) [µg/mL] | MIC (Escherichia coli [5]) [µg/mL] | fractional inhibitory concentration index (FICI) (Pseudomonas aeruginosa [6]) | MIC (Escherichia coli [7]) [µg/mL] | MIC (Pseudomonas aeruginosa [8]) [µg/mL] | fractional inhibitory concentration index (FICI) (Pseudomonas aeruginosa [9]) | MIC (Enterococcus faecalis) [µg/mL] | MIC [10] [µg/mL] | MIC (Pseudomonas aeruginosa [11]) [µg/mL] | MIC (Staphylococcus aureus) [µg/mL] | fractional inhibitory concentration index (FICI) (Pseudomonas aeruginosa [12]) | fractional inhibitory concentration index (FICI) (Pseudomonas aeruginosa [13]) | fractional inhibitory concentration index (FICI) (Pseudomonas aeruginosa [15]) | MIC (Pseudomonas aeruginosa [16]) [µg/mL] | viability at 48 h, 50 µM [17] [%] | MIC (Pseudomonas aeruginosa [18]) [µg/mL] | other results
CO[C@H]1/C=C/O[C@@]2(C)Oc3c(C)c(O)c4c(O)c(c(/C=N/N5CCN(C)CC5)c(O)c4c3C2=O)NC(=O)/C(C)=C\C=C\[C@H](C)[C@H](O)[C@@H](C)[C@@H](O)[C@@H](C)[C@H](OC(C)=O)[C@@H]1C [RIFAMPIN] | 32 (≈ 38.9 µM) | 1.5 | 32 (≈ 38.9 µM) | 32 (≈ 38.9 µM) | 8 (≈ 9.72 µM) | 8 (≈ 9.72 µM) | 1.5 | 16 (≈ 19.4 µM) | 16 (≈ 19.4 µM) | 1.5 | 1 (≈ 1.22 µM) | ≤ 0.25 | 32 (≈ 38.9 µM) | ≤ 0.25 | – | – | – | – | – | – | –
CO[C@H]1/C=C/O[C@@]2(C)Oc3c(C)c(O)c4c(O)c(c(/C=N/N5CCN(Cc6cn(CCCCCCCCCCCCO[C@@H]7[C@@H](O[C@H]8O[C@H](CO)[C@@H](O)[C@H](N)[C@H]8O)[C@H](N)C[C@H](N)[C@H]7O[C@H]7O[C@H](CN)[C@@H](O)C[C@H]7N)nn6)CC5)c(O)c4c3C2=O)NC(=O)/C(C)=C\C=C\[C@H](C)[C@H](O)[C@@H](C)[C@@H](O)[C@@H](C)[C@H](OC(C)=O)[C@@H]1C.O=C(O)C(F)(F)F.O=C(O)C(F)(F)F.O=C(O)C(F)(F)F.O=C(O)C(F)(F)F.O=C(O)C(F)(F)F | > 32 | 0.067 | 256 | > 32 | > 32 | > 32 | 0.063 | 32 | > 128 | <0.07 | > 32 | 4 | 256 | 16 | 0.15 | 1.03 | 0.09 | 256 | > 70 | 1 | fractional inhibitory concentration index (FICI) (Pseudomonas aeruginosa [14]): 0.133; fractional inhibitory concentration index (FICI) (Pseudomonas aeruginosa [19]): 1.03; MIC (Pseudomonas aeruginosa [20]): 1 µg/mL; MIC (Pseudomonas aeruginosa [21]): 2 µg/mL; fractional inhibitory concentration index (FICI) (Pseudomonas aeruginosa [22]): <0.129; fractional inhibitory concentration index (FICI) (Pseudomonas aeruginosa [23]): 0.28; fractional inhibitory concentration index (FICI) (Pseudomonas aeruginosa [24]): 0.28; viability at 48 h [25]: > 90%; fractional inhibitory concentration index (FICI) (Pseudomonas aeruginosa [26]): 0.53; MIC (Pseudomonas aeruginosa [27]): 128 µg/mL; MIC (Pseudomonas aeruginosa [28]): 4 µg/mL; fractional inhibitory concentration index (FICI) (Pseudomonas aeruginosa [29]): 1.03; MIC (Pseudomonas aeruginosa [30]): 2 µg/mL; fractional inhibitory concentration index (FICI) (Pseudomonas aeruginosa [31]): 1.03; fractional inhibitory concentration index (FICI) (Pseudomonas aeruginosa [32]): 0.28; MIC (Pseudomonas aeruginosa [33]): 128 µg/mL
CO[C@H]1/C=C/O[C@@]2(C)Oc3c(C)c(O)c4c(O)c(c(/C=N/N5CCN(Cc6cn(CCCCO[C@@H]7[C@@H](O[C@H]8O[C@H](CO)[C@@H](O)[C@H](N)[C@H]8O)[C@H](N)C[C@H](N)[C@H]7O[C@H]7O[C@H](CN)[C@@H](O)C[C@H]7N)nn6)CC5)c(O)c4c3C2=O)NC(=O)/C(C)=C\C=C\[C@H](C)[C@H](O)[C@@H](C)[C@@H](O)[C@@H](C)[C@H](OC(C)=O)[C@@H]1C.O=C(O)C(F)(F)F.O=C(O)C(F)(F)F.O=C(O)C(F)(F)F.O=C(O)C(F)(F)F.O=C(O)C(F)(F)F | > 32 | – | > 256 | > 32 | > 32 | > 32 | – | > 32 | > 128 | – | > 32 | 2 | 256 | 4 | 0.28 | 1.03 | 0.09 | 1020 | > 70 | 1 | fractional inhibitory concentration index (FICI) (Pseudomonas aeruginosa [19]): 1.03; MIC (Pseudomonas aeruginosa [20]): 1 µg/mL; MIC (Pseudomonas aeruginosa [21]): 2 µg/mL; fractional inhibitory concentration index (FICI) (Pseudomonas aeruginosa [23]): 1.03; fractional inhibitory concentration index (FICI) (Pseudomonas aeruginosa [24]): 0.26; viability at 48 h [25]: > 90%; fractional inhibitory concentration index (FICI) (Pseudomonas aeruginosa [26]): 1; MIC (Pseudomonas aeruginosa [27]): 256 µg/mL; MIC (Pseudomonas aeruginosa [28]): 4 µg/mL; fractional inhibitory concentration index (FICI) (Pseudomonas aeruginosa [29]): 1.03; MIC (Pseudomonas aeruginosa [30]): 4 µg/mL; fractional inhibitory concentration index (FICI) (Pseudomonas aeruginosa [31]): 1.03; fractional inhibitory concentration index (FICI) (Pseudomonas aeruginosa [32]): 0.53; MIC (Pseudomonas aeruginosa [33]): 256 µg/mL
